# From US9938273B2 (Plexxikon Inc., priority 2015, dated 2018)
# pIC50: −log10 of the molar value.
# Tests used:
# [1] = test system: MOLM-14 D835Y cells, FLT3 ITD and FLT3 D835Y; assay: Cell proliferation assay (CellTiter-Glo), MOLM-14 D835Y; type: cell-based; details: Homo sapiens, 72 h, 3d-Growth, GMean
# Procedure, shortened: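 MOLM-14 AML cells (endogenous FLT3 ITD, AC220-selected D835Y or F691L variants) or murine Ba/F3 expressing full-length FLT3 ITD/D835Y, without IL-3 for FLT3 dependence, 1×10^4 cells/well. Eight-point 1:3 series from 1 μM final, 0.2% DMSO, 3 days at 37 °C. CellTiter-Glo luminescence (ATP) gave IC50.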
# FLT3-D835Y = target: T1, FLT3-D835Y (Homo sapiens, UniProt P36888, D835Y); assay: AlphaScreen kinase assay with recombinant enzyme, FLT3-D835Y; type: biochemical; details: 8pt, GMean
# T1 construct: purchased Invitrogen PV3967
# T1 sequence (P36888 27-993 D835Y): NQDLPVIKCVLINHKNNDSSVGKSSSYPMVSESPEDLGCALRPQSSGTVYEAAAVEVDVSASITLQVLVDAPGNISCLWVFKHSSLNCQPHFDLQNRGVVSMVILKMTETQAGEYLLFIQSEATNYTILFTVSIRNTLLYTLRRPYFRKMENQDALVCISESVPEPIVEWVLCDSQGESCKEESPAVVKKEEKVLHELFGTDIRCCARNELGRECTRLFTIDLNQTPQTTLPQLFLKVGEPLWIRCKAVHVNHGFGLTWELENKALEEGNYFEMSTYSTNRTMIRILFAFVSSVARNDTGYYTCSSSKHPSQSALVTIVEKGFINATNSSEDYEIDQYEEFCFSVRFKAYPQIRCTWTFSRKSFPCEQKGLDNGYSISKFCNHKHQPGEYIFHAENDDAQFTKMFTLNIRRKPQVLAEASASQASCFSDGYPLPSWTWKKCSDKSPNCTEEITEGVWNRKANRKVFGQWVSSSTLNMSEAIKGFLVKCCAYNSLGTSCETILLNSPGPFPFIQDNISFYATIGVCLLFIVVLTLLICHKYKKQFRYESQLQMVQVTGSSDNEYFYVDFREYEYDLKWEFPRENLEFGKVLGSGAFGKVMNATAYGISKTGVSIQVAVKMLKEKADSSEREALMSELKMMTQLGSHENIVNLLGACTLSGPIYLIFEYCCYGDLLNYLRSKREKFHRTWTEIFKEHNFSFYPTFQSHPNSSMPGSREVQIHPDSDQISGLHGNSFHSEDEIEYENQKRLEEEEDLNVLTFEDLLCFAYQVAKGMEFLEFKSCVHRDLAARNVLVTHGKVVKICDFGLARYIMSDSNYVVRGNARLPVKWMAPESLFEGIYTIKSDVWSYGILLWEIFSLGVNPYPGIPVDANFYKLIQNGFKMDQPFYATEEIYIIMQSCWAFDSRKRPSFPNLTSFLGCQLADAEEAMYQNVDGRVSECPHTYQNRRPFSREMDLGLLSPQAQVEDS
# Procedure, shortened: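 Recombinant kinase phosphorylates biotinylated poly(Glu4-Tyr) peptide (30 nM final); streptavidin donor and anti-phosphotyrosine PY20 acceptor beads (10 μg/mL final) give a 580 nm proximity signal on 680 nm excitation. IC50 determinations used a final concentration of 10 μM for FLT3-D835Y/FLT3-ITD and 100 μM for c-KIT.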
Compound,pIC50 [1],pIC50 (FLT3-D835Y)
"N#CC1CCN(C(=O)c2cccc(-c3cnc4[nH]c(C5=CCN(C(=O)C6CC6)C5)cc4c3)n2)C1 (stereo not shown) [Compound P-0136, 1-[6-[2-[1-(cyclopropanecarbonyl)-2,5-dihydropyrrol-3-yl]-1H-pyrrolo[2,3-b]pyridin-5-yl]pyridine-2-carbonyl]pyrrolidine-3-carbonitrile]",5.00 to 10.00,5.00 to 10.00
"CC(C)(C#N)NC(=O)c1cccc(-c2cnc3[nH]c(-c4cnc(C5CC5)nc4)cc3c2)n1 [Compound P-0166, N-(1-cyano-1-methyl-ethyl)-6-[2-(2-cyclopropylpyrimidin-5-yl)-1H-pyrrolo[2,3-b]pyridin-5-yl]pyridine-2-carboxamide]",5.00 to 10.00,5.00 to 10.00
"CC(C)(C#N)CNC(=O)c1cccc(-c2cnc3[nH]c(-c4ccc(F)cc4)cc3c2)n1 [Compound P-0144, N-(2-cyano-2-methyl-propyl)-6-[2-(4-fluorophenyl)-1H-pyrrolo[2,3-b]pyridin-5-yl]pyridine-2-carboxamide]",5.00 to 10.00,5.00 to 10.00
"CC(C)(C#N)NC(=O)c1cccc(-c2cnc3[nH]c(-c4cnn(Cc5ccccc5)c4)cc3c2)n1 [Compound P-0171, 6-[2-(1-benzylpyrazol-4-yl)-1H-pyrrolo[2,3-b]pyridin-5-yl]-N-(1-cyano-1-methyl-ethyl)pyridine-2-carboxamide]",5.00 to 10.00,5.00 to 10.00
"N#CCCNC(=O)c1cccc(-c2cnc3[nH]c(-c4ccccc4)cc3c2)n1 [Compound P-0099, N-(2-cyanoethyl)-6-(2-phenyl-1H-pyrrolo[2,3-b]pyridin-5-yl)pyridine-2-carboxamide]",5.00 to 10.00,5.00 to 10.00
"CN[C@@H]1CCN(C(=O)c2ccc(-c3cnc4[nH]c(-c5ccccc5)cc4c3)s2)C1 [Compound P-0106, [(3R)-3-(methylamino)pyrrolidin-1-yl]-[5-(2-phenyl-1H-pyrrolo[2,3-b]pyridin-5-yl)-2-thienyl]methanone]",5.00 to 10.00,5.00 to 10.00
"O=S(=O)(NC1CC1)c1cccc(-c2cnc3[nH]c(-c4ccccc4)cc3c2)n1 [Compound P-0109, N-cyclopropyl-6-(2-phenyl-1H-pyrrolo[2,3-b]pyridin-5-yl)pyridine-2-sulfonamide]",5.00 to 10.00,5.00 to 10.00
"CC(C)(C#N)CNC(=O)c1cccc(-c2cnc3[nH]c(-c4ccccc4)cc3c2)n1 [Compound P-0100, N-(2-cyano-2-methyl-propyl)-6-(2-phenyl-1H-pyrrolo[2,3-b]pyridin-5-yl)pyridine-2-carboxamide]",5.00 to 10.00,5.00 to 10.00
"CC(C)(C#N)CNC(=O)c1cccc(-c2cnc3[nH]c(-c4ccnc(C5CC5)c4)cc3c2)n1 [Compound P-0152, N-(2-cyano-2-methyl-propyl)-6-[2-(2-cyclopropyl-4-pyridyl)-1H-pyrrolo[2,3-b]pyridin-5-yl]pyridine-2-carboxamide]",5.00 to 10.00,5.00 to 10.00
"CS(=O)(=O)N1CCC(NS(=O)(=O)c2cccc(-c3cnc4[nH]c(-c5ccccc5)cc4c3)n2)C1 (stereo not shown) [Compound P-0107, N-(1-methylsulfonylpyrrolidin-3-yl)-6-(2-phenyl-1H-pyrrolo[2,3-b]pyridin-5-yl)pyridine-2-sulfonamide]",5.00 to 10.00,5.00 to 10.00
"CC(C)(C#N)NC(=O)c1cccc(-c2cnc3[nH]c(-c4ccc(C5CC5)nc4)cc3c2)n1 [Compound P-0168, N-(1-cyano-1-methyl-ethyl)-6-[2-(6-cyclopropyl-3-pyridyl)-1H-pyrrolo[2,3-b]pyridin-5-yl]pyridine-2-carboxamide]",5.00 to 10.00,5.00 to 10.00
"COCCn1cc(-c2cc3cc(-c4cccc(C(=O)NC(C)(C)C#N)n4)cnc3[nH]2)cn1 [Compound P-0172, N-(1-cyano-1-methyl-ethyl)-6-[2-[1-(2-methoxyethyl)pyrazol-4-yl]-1H-pyrrolo[2,3-b]pyridin-5-yl]pyridine-2-carboxamide]",5.00 to 10.00,5.00 to 10.00
"CC(C)(C#N)NC(=O)c1cccc(-c2cnc3[nH]c(-c4cnn(CCC#N)c4)cc3c2)n1 [Compound P-0170, 6-[2-[1-(2-cyanoethyl)pyrazol-4-yl]-1H-pyrrolo[2,3-b]pyridin-5-yl]-N-(1-cyano-1-methyl-ethyl)pyridine-2-carboxamide]",5.00 to 10.00,5.00 to 10.00
"N#CC1CCN(C(=O)c2cccc(-c3cnc4[nH]c(-c5ccccc5)cc4c3)n2)C1 (stereo not shown) [Compound P-0105, 1-[6-(2-phenyl-1H-pyrrolo[2,3-b]pyridin-5-yl)pyridine-2-carbonyl]pyrrolidine-3-carbonitrile]",5.00 to 10.00,5.00 to 10.00
"CC(C)(C#N)NC(=O)c1cccc(-c2cnc3[nH]c(-c4cnn(C5CCNCC5)c4)cc3c2)n1 [Compound P-0187, N-(1-cyano-1-methyl-ethyl)-6-[2-[1-(4-piperidyl)pyrazol-4-yl]-1H-pyrrolo[2,3-b]pyridin-5-yl]pyridine-2-carboxamide]",5.00 to 10.00,5.00 to 10.00
"CN(CCC#N)C(=O)c1cccc(-c2cnc3[nH]c(-c4ccccc4)cc3c2)n1 [Compound P-0119, N-(2-cyanoethyl)-N-methyl-6-(2-phenyl-1H-pyrrolo[2,3-b]pyridin-5-yl)pyridine-2-carboxamide]",5.00 to 10.00,5.00 to 10.00
"CC(C)(C#N)CNC(=O)c1cccc(-c2cnc3[nH]c(-c4ccccc4)c(I)c3c2)n1 [Compound P-0127, N-(2-cyano-2-methyl-propyl)-6-(3-iodo-2-phenyl-1H-pyrrolo[2,3-b]pyridin-5-yl)pyridine-2-carboxamide]",5.00 to 10.00,5.00 to 10.00
"CC(C)(C#N)NC(=O)c1cccc(-c2cnc3[nH]c(-c4ccc(C5CC5)cc4)cc3c2)n1 [Compound P-0189, N-(1-cyano-1-methyl-ethyl)-6-[2-(4-cyclopropylphenyl)-1H-pyrrolo[2,3-b]pyridin-5-yl]pyridine-2-carboxamide]",5.00 to 10.00,5.00 to 10.00
"O=C(c1cccc(-c2cnc3[nH]c(-c4cnn(CC(F)(F)F)c4)cc3c2)n1)N1CCC(F)(F)C1 [Compound P-0112, (3,3-difluoropyrrolidin-1-yl)-[6-[2-[1-(2,2,2-trifluoroethyl)pyrazol-4-yl]-1H-pyrrolo[2,3-b]pyridin-5-yl]-2-pyridyl]methanone]",5.00 to 10.00,5.00 to 10.00
"CC(C)(C#N)NC(=O)c1cccc(-c2cnc3[nH]c(-c4ccc(F)cc4)cc3c2)n1 [Compound P-0145, N-(1-cyano-1-methyl-ethyl)-6-[2-(4-fluorophenyl)-1H-pyrrolo[2,3-b]pyridin-5-yl]pyridine-2-carboxamide]",5.00 to 10.00,5.00 to 10.00
"O=C(c1cccc(-c2cnc3[nH]c(-c4ccccc4)cc3c2)n1)N1CCC(n2ccnc2)C1 (stereo not shown) [Compound P-0097, (3-imidazol-1-ylpyrrolidin-1-yl)-[6-(2-phenyl-1H-pyrrolo[2,3-b]pyridin-5-yl)-2-pyridyl]methanone]",5.00 to 10.00,5.00 to 10.00
"N#CC1(NC(=O)c2cccc(-c3cnc4[nH]c(-c5ccccc5)cc4c3)n2)CC1 [Compound P-0111, N-(1-cyanocyclopropyl)-6-(2-phenyl-1H-pyrrolo[2.3-b]pyridin-5-yl]pyridine-2-carboxamide]",5.00 to 10.00,5.00 to 10.00
"O=C(NC1(CO)CC1)c1cccc(-c2cnc3[nH]c(-c4ccccc4)cc3c2)n1 [Compound P-0151, N-[1-(hydroxymethyl)cyclopropyl]-6-(2-phenyl-1H-pyrrolo[2,3-b]pyridin-5-yl)pyridine-2-carboxamide]",5.00 to 10.00,5.00 to 10.00
